Assay [1] deals with HCV NS3 protease genotype 3a (3A-1) (Hepatitis C virus genotype 3a, UniProt Q81258). The assay is described as follows: HCV NS3 protease time-resolved fluorescence (TRF) assay, genotype 3a. The format is biochemical. In short, it runs like this: (§1)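 NS3/NS4A protease was pre-incubated 10 min with inhibitor in 50 mM HEPES pH 7.5, 150 mM NaCl, 15% glycerol, 0.15% Triton X-100, 10 mM DTT, 0.1% PEG 8000. TRF peptide substrate (25 nM final) was hydrolysed for 6 h at room temperature. IC50 came from four-parameter fits.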

Assay [2] concerns the target T1, HCV genotype 1b (BK) NS3 modified enzyme with a R155K mutation (Hepatitis C virus genotype 1b, UniProt P26663, R1181K).
T1 construct: HCV genotype 1b (BK) NS3 modified enzyme
The assay is described as follows: HCV NS3 protease time-resolved fluorescence (TRF) assay, genotype 1b R155K. The format is biochemical. Conditions: Ki 1b R155K, genotype 1b (BK) NS3 R155K; single value. In short, it runs like this:
as §1

Where two headings read alike, the source gives them in different places.

As to `C=C[C@@H]1C[C@]1(NC(=O)[C@@H]1C[C@@H]2CN1C(=O)[C@H](C1CCCC1)NC(=O)O[C@@H]1CCC[C@H]1CC/C=C\Cc1c(nc3ccccc3c1OCC)O2)C(=O)NS(=O)(=O)C1CC1` [Example 3, (3aR,7S,10S,12R,21Z,24aS)-7-cyclopentyl-N-{(1R,2S)-1-[(cyclopropylsulfonyl)carbamoyl]-2-ethenylcyclopropyl}-19-ethoxy-5,8-dioxo-1,2,3,3a, 5,6,7,8,11,12,20,23,24,24a-tetradecahydro-10H-9,12-methanocyclopenta[18,19][1,10,3,6] dioxadiazacyclononadecino[11,12-b] quinoline-10-carboxamide], the inhibition constant (Ki) in assay [1] (Ki 3a) was 35 nM; in assay [2] it was 1.4 nM.

Turning to `C=C[C@@H]1C[C@]1(NC(=O)[C@@H]1C[C@@H]2CN1C(=O)[C@H](C1CCCC1)NC(=O)O[C@@H]1CCC[C@H]1CC/C=C/Cc1c(nc3ccccc3c1OCCCN1CCCC(C)(C)C1)O2)C(=O)NS(=O)(=O)C1CC1` [Example 92, (3aR,7S,10S,12R,21E,24aS)-7-cyclo pentyl-N-{(1R,2S)-1-[(cyclopropylsulfonyl)carbamoyl]-2-ethenylcyclopropyl}-19-[3-(3,3-dimethylpiperidin-1-yl)propoxy]-5,8-dioxo-1,2,3,3a,5,6,7,8,11,12,20,23,24,24a-tetradeca hydro-10H-9,12-methano-cyclopenta[18,19][1,10,3,6]dioxa diazacyclononadecino[11,12-b] quinoline-10-carboxamide], the Ki was found to be 19 nM in assay [1] (Ki 3a) and 1.6 nM in assay [2].

Regarding `C=C[C@@H]1C[C@]1(NC(=O)[C@@H]1C[C@@H]2CN1C(=O)[C@H](C(C)(C)C)NC(=O)O[C@@H]1C[C@H]1CCCCCc1c(nc3c(OC)cccc3c1OCCCN1CC3(COC3)C1)O2)C(=O)NS(=O)(=O)C1(C)CC1` [Example 153, (1aR,5S,8S,10R,22aR)-5-tert-butyl-N-[(1R,2S)-2-ethenyl-1-{[(1-methylcyclopropyl)sulfonyl]carbamoyl}cyclopropyl]-13-methoxy-17-[3-(2-oxa-6-azaspiro[3.3]hept-6-yl)propoxy]-3,6-dioxo-1,1a, 3,4,5,6,9,10,18,19,20,21,22,22a-tetradeca hydro-8H-7,10-methanocyclopropa[18,19][1,10,3,6] dioxadiazacyclononadecino [11,12-b]quinoline-8-carboxamide], the Ki came out at 0.61 nM in assay [1] (Ki 3a) and 0.059 nM in assay [2].

In the case of `C=C[C@@H]1C[C@]1(NC(=O)[C@@H]1C[C@@H]2CN1C(=O)[C@H](C(C)(C)C)NC(=O)O[C@@H]1CCC[C@H]1CCCCCc1c(nc3ccccc3c1O)O2)C(=O)NS(=O)(=O)C1(COC)CC1` [Example 35, (3aR,7S,10S,12R,24aR)-7-tert-butyl-N-[(1R,2S)-2-ethenyl-1-({[1-(methoxymethyl)cyclopropyl]sulfonyl}carbamoyl)cyclopropyl]-19-hydroxy-5,8-dioxo-1,2,3,3a,5,6,7,8,11,12, 20,21,22,23,24,24a-hexadecahydro-10H-9,12-methanocyclopenta[18,19][1,10,3,6] dioxadiazacyclononadecino[11,12-b]quinoline-10-carboxamide], the inhibitory constant (Ki) came out at 2 nM in assay [1] (Ki 3a) and 0.15 nM in assay [2].

Regarding `C=C[C@@H]1C[C@]1(NC(=O)[C@@H]1C[C@@H]2CN1C(=O)[C@H](C(C)(C)C)NC(=O)O[C@@H]1C[C@H]1CCCCCc1c(nc3ccccc3c1OCCCN1CCC1)O2)C(=O)NS(=O)(=O)C1(C)CC1` [Example 133, (1aR,5S,8S,10R,22aR)-17-[3-(azetidin-1-yl)propoxy]-5-tert-butyl-N-[(1R,2S)-2-ethenyl-1-{[(1-methylcyclopropyl)sulfonyl]carbamoyl}cyclopropyl]-3,6-dioxo-1,1a,3,4,5,6,9,10,18,19,20,21,22,22a-tetradecahydro-8H-7,10-methanocyclopropa[18,19][1,10,3,6]dioxadiazacyclononadecino[11,12-b]quinoline-8-carboxamide], the Ki worked out at 1 nM in assay [1] (Ki 3a) and 0.11 nM in assay [2].

Regarding `C=C[C@@H]1C[C@]1(NC(=O)[C@@H]1C[C@@H]2CN1C(=O)[C@H](C1CCCCC1)NC(=O)O[C@@H]1C[C@H]1CCCCCc1c(nc3c(OC)cccc3c1OCCN1CCCCC1)O2)C(=O)NS(=O)(=O)C1(C)CC1` [Example 216, (1aR,5S,8S,10R,22aR)-5-cyclohexyl-N-[(1R,2S)-2-ethenyl-1-{[(1-methylcyclopropyl)sulfonyl]carbamoyl}cyclopropyl]-13-methoxy-3,6-dioxo-17-[2-(piperidin-1-yl)ethoxy]-1,1a,3,4,5,6,9,10,18,19,20,21,22,22a-tetradecahydro-8H-7,10-methanocyclopropa[18,19][1,10,3,6] dioxadiazacyclononadecino[11,12-b]quinoline-8-carboxamide], the inhibitory constant (Ki) in assay [1] (Ki 3a) is 6.4 nM; in assay [2], 0.24 nM.

On to `C=C[C@@H]1C[C@]1(NC(=O)[C@@H]1C[C@@H]2CN1C(=O)[C@H](C1CCCC1)NC(=O)O[C@@H]1CCC[C@H]1CC/C=C/Cc1c(nc3ccccc3c1OCCCN1CCCC1=O)O2)C(=O)NS(=O)(=O)C1CC1` [Example 78, (3aR,7S,10S,12R,21E,24aS)-7-cyclo pentyl-N-{(1R,2S)-1-[(cyclopropylsulfonyl)carbamoyl]-2-ethenylcyclopropyl}-5,8-dioxo-19-[3-(2-oxopyrrolidin-1-yl)propoxy]-1,2,3,3a,5,6,7,8,11,12,20,23,24,24a-tetradecahydro-10H-9,12-methano-cyclopenta[18,19][1,10,3,6]dioxa diazacyclonona decino[11,12-b] quinoline-10-carboxamide], for which the inhibition constant Ki in assay [1] (Ki 3a) was determined as 0.54 nM; in assay [2], 0.08 nM.

Take `C=C[C@@H]1C[C@]1(NC(=O)[C@@H]1C[C@@H]2CN1C(=O)[C@H](C1CCCC1)NC(=O)O[C@@H]1CCC[C@H]1CC/C=C/Cc1c(nc3ccccc3c1OCC(=O)O)O2)C(=O)NS(=O)(=O)C1CC1` [Example 66, {[(3aR,7S,10S,12R,21E,24aS)-7-cyclopentyl-10-({(1R,2S)-1-[(cyclopropylsulfonyl)carbamoyl]-2-ethenylcyclopropyl}carbamoyl)-5,8-dioxo-1,2,3,3a,5,6,7,8,11,12,20,23,24,24a-tetradecahydro-10H-9,12-methanocyclopenta[18,19][1,10,3,6]dioxadiazacyclononadecino[11,12-b]quinolin-19-yl]oxy}acetic acid]: the Ki was 25 nM in assay [1] (Ki 3a) and 0.077 nM in assay [2].

Consider `C=C[C@@H]1C[C@]1(NC(=O)[C@@H]1C[C@@H]2CN1C(=O)[C@H](C(C)(C)C)NC(=O)O[C@@H]1C[C@H]1CCCCCc1c(nc3ccccc3c1OCCc1ccncc1)O2)C(=O)NS(=O)(=O)C1(C)CC1` [Example 219, (1aR,5S,8S,10R,22aR)-5-tert-butyl-N-[(1R,2S)-2-ethenyl-1-{[(1-methylcyclopropyl)sulfonyl]carbamoyl}cyclopropyl]-3,6-dioxo-17-[2-(pyridine-4-yl)ethoxy]-1,1a,3,4,5,6,9,10,18,19,20,21,22,22a-tetradecahydro-8H-7,10-methanocyclopropa[18,19][1,10,3,6] dioxadiazacyclononadecino[11,12-b]quinoline-8-carboxamide], for which the Ki worked out at 1.9 nM in assay [1] (Ki 3a) and 0.12 nM in assay [2].

On to `C=C[C@@H]1C[C@]1(NC(=O)[C@@H]1C[C@@H]2CN1C(=O)[C@H](C(C)(C)C)NC(=O)O[C@@H]1C[C@H]1CCCCCc1c(nc3ccccc3c1OCCCN(CC(O)c1ccc(O)c(O)c1)C(C)C)O2)C(=O)NS(=O)(=O)C1(C)CC1` (stereo partly drawn) [Example 188, (1aR,5S,8S,10R,22aR)-5-tert-butyl-17-(3-{[2-(3,4-dihydroxyphenyl)-2-hydroxyethyl](propan-2-yl)amino}propoxy)-N-[(1R,2S)-2-ethenyl-1-{[(1-methylcyclopropyl)sulfonyl]carbamoyl}cyclopropyl]-3,6-dioxo-1,1a,3,4,5,6,9,10,18,19,20, 21,22,22a-tetradecahydro-8H-7,10-methanocyclopropa[18,19][1,10,3,6] dioxadiazacyclononadecino[11,12-b] quinoline-8-carboxamide], for which the values for the inhibitory constant (Ki) in assay [1] (Ki 3a) and in assay [2] were 0.85 nM and 0.033 nM, respectively.

`C=C[C@@H]1C[C@]1(NC(=O)[C@@H]1C[C@@H]2CN1C(=O)[C@H](C1CCCC1)NC(=O)O[C@]1(C)CCC[C@H]1CC/C=C/Cc1c(nc3ccccc3c1OCc1ccccc1)O2)C(=O)NS(=O)(=O)C1CC1` [Example 14, (3aR,7S,10S,12R,21E,24aS)-19-(benzyloxy)-7-cyclopentyl-N-{(1R,2S)-1-[(cyclopropylsulfonyl)carbamoyl]-2-ethenylcyclopropyl}-3a-methyl-5,8-dioxo-1,2,3,3a,5,6,7,8,11,12,20,23,24,24a-tetradecahydro-10H-9,12-methanocyclopenta[18,19] [1,10,3,6]dioxadiazacyclononadecino[11,12-b] quinoline-10-carboxamide]: the Ki in assay [1] (read-out: Ki 3a) came out at 28 nM; in assay [2], 0.81 nM.

Turning to `C=C[C@@H]1C[C@]1(NC(=O)[C@@H]1C[C@@H]2CN1C(=O)[C@H](C(C)(C)C)NC(=O)O[C@@H]1C[C@H]1CCCCCc1c(nc3ccccc3c1OCC1CN(CC)CCO1)O2)C(=O)NS(=O)(=O)C1(C)CC1` (stereo partly drawn) [Example 226, (1aR,5S,8S,10R,22aR)-5-tert-butyl-N-[(1R,2S)-2-ethenyl-1-{[(1-methylcyclopropyl)sulfonyl]carbamoyl}cyclopropyl]-17-[(4-ethylmorpholin-2-yl)methoxy]-3,6-dioxo-1,1a,3,4,5,6,9,10,18,19,20,21,22,22a-tetradecahydro-8H-7,10-methanocyclopropa[18,19][1,10,3,6] dioxadiazacyclononadecino[11,12-b]quinoline-8-carboxamide], the Ki in assay [1] (Ki 3a) worked out at 1.6 nM; in assay [2], 0.11 nM.

(Values after US9328138B2 (priority 2011, dated 2016).)
